Source: the supplement of paper PMC10307832

How the values were obtained:
Experiment in all cases: relative viability (nuclei count vs DMSO), 5 days (fraction); higher = more cells survive
KIN001-266 + Dasatinib = compound: CCN1CCC(CC1)N2C=C(N=N2)CNC3=CC4=C(C(=CN=C4C(=C3)Cl)C#N)NC5=CC(=C(C=C5)F)Cl [KIN001-266] + Cc1nc(Nc2ncc(C(=O)Nc3c(C)cccc3Cl)s2)cc(N2CCN(CCO)CC2)n1 [Dasatinib] (partner 0.075 µM)
Outline: (§1)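 A single step with final 0.05% Triton X-100, 1% formaldehyde and 1 ug/ml Hoechst fixed the cells and stained nuclei 5 days after treatment. Lung cancer cell lines in 1536-well plates had been treated by pin tool the day after seeding with one drug alone or a fixed anchor-drug dose plus five library-drug doses (not always all listed) in √10 steps, and nuclei were counted on 4× images. Relative viability is the ratio of nuclei in treated wells to nuclei in vehicle wells, taken as the median of duplicate plates.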

KIN001-266 + Palbociclib = compound: CCN1CCC(CC1)N2C=C(N=N2)CNC3=CC4=C(C(=CN=C4C(=C3)Cl)C#N)NC5=CC(=C(C=C5)F)Cl [KIN001-266] + CC(=O)c1c(C)c2cnc(Nc3ccc(N4CCNCC4)cn3)nc2n(C2CCCC2)c1=O [Palbociclib] (partner 0.5 µM)
Outline: as §1

KIN001-266 + Vorinostat = compound: CCN1CCC(CC1)N2C=C(N=N2)CNC3=CC4=C(C(=CN=C4C(=C3)Cl)C#N)NC5=CC(=C(C=C5)F)Cl [KIN001-266] + O=C(CCCCCCC(=O)Nc1ccccc1)NO [Vorinostat] (partner 1 µM)
Outline: as §1

KIN001-266 + Pemetrexed = compound: CCN1CCC(CC1)N2C=C(N=N2)CNC3=CC4=C(C(=CN=C4C(=C3)Cl)C#N)NC5=CC(=C(C=C5)F)Cl [KIN001-266] + Nc1nc2[nH]cc(CCc3ccc(C(=O)N[C@@H](CCC(=O)O)C(=O)O)cc3)c2c(=O)[nH]1 [Pemetrexed] (partner 0.2 µM)
Outline: as §1

| Cell Line | relative viability (KIN001-266 + Dasatinib; first compound 0.08 µM) | relative viability (KIN001-266 + Dasatinib; first compound 0.253 µM) | relative viability (KIN001-266 + Dasatinib; first compound 0.8 µM) | relative viability (KIN001-266 + Dasatinib; first compound 2.53 µM) | relative viability (KIN001-266 + Dasatinib; first compound 8 µM) | relative viability (KIN001-266 + Palbociclib; first compound 0.08 µM) | relative viability (KIN001-266 + Palbociclib; first compound 0.253 µM) | relative viability (KIN001-266 + Palbociclib; first compound 0.8 µM) | relative viability (KIN001-266 + Palbociclib; first compound 2.53 µM) | relative viability (KIN001-266 + Palbociclib; first compound 8 µM) | relative viability (KIN001-266 + Vorinostat; first compound 0.08 µM) | relative viability (KIN001-266 + Vorinostat; first compound 0.253 µM) | relative viability (KIN001-266 + Vorinostat; first compound 0.8 µM) | relative viability (KIN001-266 + Vorinostat; first compound 2.53 µM) | relative viability (KIN001-266 + Vorinostat; first compound 8 µM) | relative viability (KIN001-266 + Pemetrexed; first compound 0.08 µM) | relative viability (KIN001-266 + Pemetrexed; first compound 0.253 µM) | relative viability (KIN001-266 + Pemetrexed; first compound 0.8 µM) | relative viability (KIN001-266 + Pemetrexed; first compound 2.53 µM) | relative viability (KIN001-266 + Pemetrexed; first compound 8 µM) |
| --- | --- | --- | --- | --- | --- | --- | --- | --- | --- | --- | --- | --- | --- | --- | --- | --- | --- | --- | --- | --- |
| NCI-H1755 | 0.415 | 0.387 | 0.471 | 0.478 | 0.451 | 0.43 | 0.447 | 0.432 | 0.443 | 0.413 | 0.726 | 0.75 | 0.7 | 0.691 | 0.763 | 0.394 | 0.459 | 0.334 | 0.407 | 0.433 |
| NCI-H1793 | 0.332 | 0.389 | 0.391 | 0.329 | 0.369 | 0.316 | 0.358 | – | 0.354 | 0.307 | 0.887 | 0.738 | – | 0.723 | 0.555 | 0.895 | 0.925 | – | 0.771 | 0.621 |
| NCI-H1915 | 0.369 | 0.316 | 0.357 | 0.396 | 0.292 | 0.546 | 0.599 | 0.514 | 0.543 | 0.389 | 0.499 | 0.484 | 0.534 | 0.509 | 0.544 | 0.507 | 0.466 | 0.504 | 0.469 | 0.575 |
| NCI-H1944 | 0.244 | 0.215 | 0.187 | 0.214 | 0.209 | 0.338 | 0.355 | 0.319 | 0.361 | 0.351 | 0.58 | 0.508 | 0.469 | 0.575 | 0.625 | 0.616 | 0.572 | 0.596 | 0.664 | 0.57 |
| NCI-H1975 | 0.396 | 0.355 | 0.344 | 0.388 | 0.319 | 0.709 | 0.553 | 0.551 | 0.609 | 0.505 | 0.693 | 0.688 | 0.716 | 0.707 | 0.604 | 0.314 | 0.305 | 0.297 | 0.285 | 0.29 |
| NCI-H1993 | 0.767 | 0.621 | 0.521 | 0.553 | 0.568 | 0.68 | 0.653 | 0.66 | 0.688 | 0.58 | 0.959 | 0.604 | 0.685 | 0.713 | 0.471 | 0.562 | 0.554 | 0.637 | 0.586 | 0.596 |
| NCI-H2009 | 0.382 | 0.313 | 0.302 | 0.274 | 0.201 | 0.203 | 0.257 | 0.253 | 0.208 | 0.203 | 0.724 | 0.736 | 0.676 | 0.653 | 0.516 | 1.03 | 1.04 | 1.01 | 0.996 | 0.903 |
| NCI-H2023 | 0.608 | 0.555 | 0.63 | 0.526 | 0.533 | 0.333 | 0.383 | 0.388 | 0.289 | 0.288 | 0.676 | 0.871 | 0.675 | 0.636 | 0.539 | 0.233 | 0.192 | 0.296 | 0.221 | 0.201 |
| NCI-H2085 | 0.221 | 0.234 | 0.241 | 0.239 | 0.244 | 0.478 | 0.494 | 0.504 | 0.461 | 0.38 | 0.785 | 0.779 | 0.808 | 0.772 | 0.667 | 0.896 | 0.884 | 0.738 | 0.908 | 0.798 |
| NCI-H2087 | 0.914 | 0.887 | 0.866 | 0.87 | 0.472 | 0.241 | 0.308 | 0.267 | 0.26 | 0.242 | 0.455 | 0.776 | 0.965 | 0.898 | 0.594 | 0.646 | 0.716 | 0.637 | 0.581 | 0.587 |
| NCI-H2126 | 0.656 | 0.631 | 0.599 | 0.624 | 0.589 | 0.324 | 0.366 | 0.387 | 0.358 | 0.365 | 0.809 | 0.783 | 0.751 | 0.732 | 0.694 | 0.713 | 0.73 | 0.758 | 0.687 | 0.619 |
| NCI-H2170 | 0.422 | 0.505 | 0.571 | 0.594 | 0.576 | 0.375 | 0.433 | 0.365 | 0.407 | 0.373 | 0.853 | 0.759 | 0.828 | 0.752 | 0.83 | 0.256 | 0.256 | 0.248 | 0.248 | 0.25 |
| NCI-H2228 | 0.544 | 0.538 | 0.511 | 0.434 | 0.451 | 0.836 | 0.797 | 0.936 | 0.763 | 0.664 | 0.631 | 0.645 | 0.722 | 0.509 | 0.422 | 0.329 | 0.325 | 0.35 | 0.322 | 0.352 |
| NCI-H2342 | 0.298 | 0.303 | 0.258 | 0.264 | 0.31 | 0.52 | 0.518 | 0.471 | 0.597 | 0.575 | 0.693 | 0.867 | 0.876 | 0.776 | 1.16 | 0.785 | 0.738 | 0.619 | 0.705 | 0.91 |
| NCI-H2347 | 0.34 | 0.294 | 0.258 | 0.329 | 0.241 | 0.445 | 0.468 | 0.401 | 0.442 | 0.404 | 0.678 | 0.647 | 0.62 | 0.594 | 0.418 | 0.455 | 0.463 | 0.43 | 0.452 | 0.433 |
| NCI-H2405 | 0.207 | 0.241 | 0.233 | 0.223 | 0.202 | 0.525 | 0.567 | 0.551 | 0.467 | 0.441 | 1.08 | 1.03 | 1.02 | 1.04 | 0.809 | 1.08 | 1.04 | 1.2 | 0.84 | 0.932 |
